Patent US8741836B2, “Polypeptides” (Novo Nordisk A/S, priority 2011, dated 2014)
Starred links: 1 amine or outer side, 2 acyl side, 3 side chain; linkers in the order of their positions; H or OH if unused. Positions of bridges follow the written chain, without caps; N, C: chain ends. Residues, ends and D or L forms follow the SMILES beside them. Groups on a side chain read outwards from the residue. *: point of attachment. C20 diacid = O=C(O)CCCCCCCCCCCCCCCCCCC(=O)*; C18 diacid = O=C(O)CCCCCCCCCCCCCCCCC(=O)*; γGlu = O=C(O)[C@H](CCC(=O)[*:2])N[*:1]; AEEA = NCCOCCOCC(=O)O

Experiments:
[1] = Assay (III) ThT fibrillation assay for physical stability; type: physicochemical; conditions: pH 4.0, ThT fibrillation assay
How it was run: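 Freshly prepared, pH-adjusted formulations with 1 μM ThT incubated at 37 °C under 960 rpm orbital shaking (1 mm), fluorescence (ex 444, em 485 nm) read every 20 min. […] Peptide content before and after measured by reverse-phase HPLC against pramlintide standard.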

ad libitum fed rat = experiment: Assay (I) efficacy testing on appetite (food intake) using an ad libitum fed rat model; type: in vivo, Sprague Dawley (SD) rats
How it was run: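 Ad libitum fed Sprague Dawley rats, 200-250 g, singly housed on reversed light cycle, got one ip, po or sc dose of 0.01-3 mg/kg just before lights off; groups of 5-8 with vehicle control. Food intake recorded hourly for 7 h, then at 24 h and sometimes 48 h; Grubbs outliers excluded.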

Compound	ThT pH 4.0 lag time [1] [h]	Food intake reduction 0-24 h 30 nmol/kg (%) (ad libitum fed rat)	Food intake reduction 24-48 h 30 nmol/kg (%) (ad libitum fed rat)	Food intake reduction 0-24 h 3 nmol/kg (%) (ad libitum fed rat)	Food intake reduction 24-48 h 3 nmol/kg (%) (ad libitum fed rat)
CC[C@H](C)[C@H](NC(=O)[C@@H]1CCCN1C(=O)CNC(=O)[C@H](Cc1ccccc1)NC(=O)[C@H](CC(N)=O)NC(=O)[C@H](CC(N)=O)NC(=O)[C@H](CO)NC(=O)[C@H](CO)NC(=O)[C@H](Cc1c[nH]cn1)NC(=O)[C@H](CCCNC(=N)N)NC(=O)[C@H](CC(C)C)NC(=O)[C@H](Cc1ccccc1)NC(=O)[C@H](CCC(=O)O)NC(=O)[C@H](C)NC(=O)[C@H](CC(C)C)NC(=O)[C@H](CCCNC(=N)N)NC(=O)[C@H](CCC(N)=O)NC(=O)[C@@H](NC(=O)[C@H](C)NC(=O)[C@@H]1CSSC[C@H](NC(=O)[C@H](Cc2c[nH]cn2)NC(=O)[C@H](Cc2c[nH]cn2)NC(=O)[C@H](Cc2c[nH]cn2)NC(=O)CC[C@H](NC(=O)CCCCCCCCCCCCCCCCCCC(=O)O)C(=O)O)C(=O)N[C@@H](CC(N)=O)C(=O)N[C@@H]([C@@H](C)O)C(=O)N[C@@H](C)C(=O)N[C@@H]([C@@H](C)O)C(=O)N1)[C@@H](C)O)C(=O)N[C@@H](CC(C)C)C(=O)N1CCC[C@H]1C(=O)N1CCC[C@H]1C(=O)N[C@H](C(=O)N[C@@H](CC(N)=O)C(=O)N[C@H](C(=O)NCC(=O)N[C@@H](CO)C(=O)N[C@@H](CC(N)=O)C(=O)N[C@H](C(=O)N[C@@H](Cc1ccc(O)cc1)C(N)=O)[C@@H](C)O)C(C)C)[C@@H](C)O [Example 12, N-alpha-[(S)-4-Carboxy-4-(19-carboxynonadecanoylamino)butyryl]-His-His-[His1,Glu14,Arg17]-pramlintide] ({C20 diacid-γGlu}-HHHCNTATCATQRLAEFLRHSSNNFGPILPPTNVGSNTY-NH2; disulfide 4-9 (inferred))	>45	70	45		
CC[C@H](C)[C@H](NC(=O)[C@H](CCCCNC(=O)COCCOCCNC(=O)COCCOCCNC(=O)CC[C@H](NC(=O)CCCCCCCCCCCCCCCCC(=O)O)C(=O)O)NC(=O)CNC(=O)[C@H](Cc1ccccc1)NC(=O)[C@H](CC(N)=O)NC(=O)[C@H](CC(N)=O)NC(=O)[C@H](CO)NC(=O)[C@H](CO)NC(=O)[C@H](Cc1c[nH]cn1)NC(=O)[C@H](Cc1c[nH]cn1)NC(=O)[C@H](CC(C)C)NC(=O)[C@H](Cc1ccccc1)NC(=O)[C@H](CCC(=O)O)NC(=O)[C@H](C)NC(=O)[C@H](CC(C)C)NC(=O)[C@H](CCCNC(=N)N)NC(=O)[C@H](CCC(N)=O)NC(=O)[C@@H](NC(=O)[C@H](C)NC(=O)[C@@H]1CSSC[C@H](NC(=O)[C@@H](N)CCCCN)C(=O)N[C@@H](CC(N)=O)C(=O)N[C@@H]([C@@H](C)O)C(=O)N[C@@H](C)C(=O)N[C@@H]([C@@H](C)O)C(=O)N1)[C@@H](C)O)C(=O)N[C@@H](CC(C)C)C(=O)N1CCC[C@H]1C(=O)N1CCC[C@H]1C(=O)N[C@H](C(=O)N[C@@H](CC(N)=O)C(=O)N[C@H](C(=O)NCC(=O)N[C@@H](CO)C(=O)N[C@@H](CC(N)=O)C(=O)N[C@H](C(=O)N[C@@H](Cc1ccc(O)cc1)C(N)=O)[C@@H](C)O)C(C)C)[C@@H](C)O [Example 73, N-epsilon25-[2-(2-{2-[2-(2-{2-[(S)-4-Carboxy-4-(17-carboxyheptadecanoylamino)butyrylamino]ethoxy}ethoxy)acetylamino]ethoxy}ethoxy)acetyl]-[Glu14,His17,Lys25]-pramlintide] (H-KCNTATCATQRLAEFLHHSSNNFGK([AEEA-AEEA-γGlu-C18 diacid])ILPPTNVGSNTY-NH2; disulfide 2-7; N-terminus assumed)	>45			29	2
CC[C@H](C)[C@H](NC(=O)[C@@H]1CCCN1C(=O)CNC(=O)[C@H](Cc1ccccc1)NC(=O)[C@H](CC(N)=O)NC(=O)[C@H](CC(N)=O)NC(=O)[C@H](CO)NC(=O)[C@H](CO)NC(=O)[C@H](Cc1c[nH]cn1)NC(=O)[C@H](Cc1c[nH]cn1)NC(=O)[C@H](CC(C)C)NC(=O)[C@H](Cc1ccccc1)NC(=O)[C@H](CCC(=O)O)NC(=O)[C@H](C)NC(=O)[C@H](CC(C)C)NC(=O)[C@H](CCCNC(=N)N)NC(=O)[C@H](CCC(N)=O)NC(=O)[C@@H](NC(=O)[C@H](C)NC(=O)[C@@H]1CSSC[C@H](NC(=O)[C@H](CCCCN)NC(=O)CC[C@H](NC(=O)CCCCCCCCCCCCCCCCCCC(=O)O)C(=O)O)C(=O)N[C@@H](CC(N)=O)C(=O)N[C@@H]([C@@H](C)O)C(=O)N[C@@H](C)C(=O)N[C@@H]([C@@H](C)O)C(=O)N1)[C@@H](C)O)C(=O)N[C@@H](CC(C)C)C(=O)N1CCC[C@H]1C(=O)N1CCC[C@H]1C(=O)N[C@H](C(=O)N[C@@H](CC(N)=O)C(=O)N[C@H](C(=O)NCC(=O)N[C@@H](CO)C(=O)N[C@@H](Cc1c[nH]cn1)C(=O)N[C@H](C(=O)N[C@@H](Cc1ccc(O)cc1)C(N)=O)[C@@H](C)O)C(C)C)[C@@H](C)O [Example 55, N-alpha-[(S)-4-Carboxy-4-(19-carboxynonadecanoylamino)butyryl]-[Glu14,His17,His35]-pramlintide] ({C20 diacid-γGlu}-KCNTATCATQRLAEFLHHSSNNFGPILPPTNVGSHTY-NH2; disulfide 2-7 (inferred))	37	88	90	58	40
CC[C@H](C)[C@H](NC(=O)[C@@H]1CCCN1C(=O)CNC(=O)[C@H](Cc1ccccc1)NC(=O)[C@H](CC(N)=O)NC(=O)[C@H](CC(N)=O)NC(=O)[C@H](CO)NC(=O)[C@H](CO)NC(=O)[C@H](Cc1c[nH]cn1)NC(=O)[C@H](Cc1c[nH]cn1)NC(=O)[C@H](CC(C)C)NC(=O)[C@H](Cc1ccccc1)NC(=O)[C@H](CCC(=O)O)NC(=O)[C@H](C)NC(=O)[C@H](CC(C)C)NC(=O)[C@H](CCCNC(=N)N)NC(=O)[C@H](CCC(N)=O)NC(=O)[C@@H](NC(=O)[C@H](C)NC(=O)[C@@H]1CSSC[C@H](NC(=O)[C@@H](N)CCCCNC(=O)CC[C@H](NC(=O)CCCCCCCCCCCCCCCCCCC(=O)O)C(=O)O)C(=O)N[C@@H](CC(N)=O)C(=O)N[C@@H]([C@@H](C)O)C(=O)N[C@@H](C)C(=O)N[C@@H]([C@@H](C)O)C(=O)N1)[C@@H](C)O)C(=O)N[C@@H](CC(C)C)C(=O)N1CCC[C@H]1C(=O)N1CCC[C@H]1C(=O)N[C@H](C(=O)N[C@@H](CC(N)=O)C(=O)N[C@H](C(=O)NCC(=O)N[C@@H](CO)C(=O)N[C@@H](Cc1c[nH]cn1)C(=O)N[C@H](C(=O)N[C@@H](Cc1ccc(O)cc1)C(N)=O)[C@@H](C)O)C(C)C)[C@@H](C)O [Example 87, N-epsilon1-[(S)-4-Carboxy-4-(19-carboxynonadecanoylamino)butyryl]-[Glu14,His17,His35]-pramlintide] (H-K([γGlu-C20 diacid])CNTATCATQRLAEFLHHSSNNFGPILPPTNVGSHTY-NH2; disulfide 2-7 (inferred); C-terminus assumed)	25			66	47
